≈ marks a conversion by molar mass, not a printed value.
Assays:
Assay type in all cases: functional
Conditions in all cases: time 7 day
[1] = test system: Mycobacterium tuberculosis; test: Anti-mycobacterial activity against Isoniazid resistant Mycobacterium tuberculosis clinical isolate harbouring inhA mutant assessed as bacterial growth inhibition incubated for 7 days by microplate alamar blue assay
[2] = test system: Mycobacterium tuberculosis; test: Anti-mycobacterial activity against isoniazid, rifampicin, ethambutol and pyrazinamide-resistant Mycobacterium tuberculosis clinical isolate harbouring inhA/katG/rpoB H526D mutant assessed as bacterial growth inhibition incubated for 7 days by microplate alamar blue assay
[3] = test system: Mycobacterium tuberculosis; test: Anti-mycobacterial activity against Rifampicin resistant Mycobacterium tuberculosis clinical isolate harbouring rpoB S531L mutant assessed as bacterial growth inhibition incubated for 7 days by microplate alamar blue assay
[4] = test system: Mycobacterium tuberculosis; test: Anti-mycobacterial activity against Isoniazid resistant Mycobacterium tuberculosis clinical isolate harbouring katG S315T mutant assessed as bacterial growth inhibition incubated for 7 days by microplate alamar blue assay

Compound | MIC50 [1] | MIC90 [1] | MIC50 [2] | MIC90 [2] | MIC50 [3] | MIC90 [3] | MIC50 [4] | MIC90 [4]
Clc1ccccc1C(c1ccccc1)(c1ccccc1)n1ccnc1 [CLOTRIMAZOLE] | 0.17 µM (≈ 0.0586 µg/mL) | 0.78 µM (≈ 0.269 µg/mL) | 5.07 µM (≈ 1.75 µg/mL) | 6.25 µM (≈ 2.16 µg/mL) | 1.53 µM (≈ 0.528 µg/mL) | 3.12 µM (≈ 1.08 µg/mL) | 1.72 µM (≈ 0.593 µg/mL) | 3.12 µM (≈ 1.08 µg/mL)
NNC(=O)c1ccncc1 [ISONIAZID] | 0.98 µM (≈ 0.134 µg/mL) | 1.56 µM (≈ 0.214 µg/mL) | >100 µM | >100 µM | 23.03 µM (≈ 3.16 µg/mL) | 25 µM (≈ 3.43 µg/mL) | 11.06 µM (≈ 1.52 µg/mL) | 12.5 µM (≈ 1.71 µg/mL)
CC(=O)NC[C@H]1CN(c2ccc(N3CCOCC3)c(F)c2)C(=O)O1 [LINEZOLID] | 0.12 µM (≈ 0.0405 µg/mL) | 0.39 µM (≈ 0.132 µg/mL) | 0.81 µM (≈ 0.273 µg/mL) | 1.56 µM (≈ 0.526 µg/mL) | 0.24 µM (≈ 0.081 µg/mL) | 0.78 µM (≈ 0.263 µg/mL) | 0.42 µM (≈ 0.142 µg/mL) | 1.56 µM (≈ 0.526 µg/mL)
Clc1ccc(COC(Cn2ccnc2)c2ccc(Cl)cc2Cl)c(Cl)c1 (stereo not given) [MICONAZOLE] | 0.28 µM (≈ 0.117 µg/mL) | 0.78 µM (≈ 0.325 µg/mL) | 4.42 µM (≈ 1.84 µg/mL) | 6.25 µM (≈ 2.6 µg/mL) | 2.74 µM (≈ 1.14 µg/mL) | 6.25 µM (≈ 2.6 µg/mL) | 3.58 µM (≈ 1.49 µg/mL) | 6.25 µM (≈ 2.6 µg/mL)
CO[C@H]1/C=C/O[C@@]2(C)Oc3c(C)c(O)c4c(O)c(c(/C=N/N5CCN(C)CC5)c(O)c4c3C2=O)NC(=O)/C(C)=C\C=C\[C@H](C)[C@H](O)[C@@H](C)[C@@H](O)[C@@H](C)[C@H](OC(C)=O)[C@@H]1C [RIFAMPIN] | <0.04 µM | <0.04 µM | >100 µM | >100 µM | 28.15 µM (≈ 23.2 µg/mL) | 50 µM (≈ 41.1 µg/mL) | <0.04 µM | <0.04 µM

Source: ChEMBL document CHEMBL5390314, “Repurposing Azoles to Resolve Serotogenic Toxicity Associated with Linezolid to Combat Multidrug-Resistant Tuberculosis” (ACS Med Chem Lett, 2023)
